According to US11986540B2, “Compositions including pafolacianine for the identification of malignant lesions” (ON TARGET LABORATORIES, LLC., priority 2022, dated 2024):
Where two headings read alike, the source gives them in different places.

Tests used:
[1] = tested on: FR-negative A549 cell tumor xenografts; test: Whole body imaging and tissue distribution, FR-negative A549 tumor xenografts; assay type: in vivo, mice
Method: (§1) The optimal dose range for pafolacianine with respect to tumor-to-background ratio in FR-positive tumor-bearing mice was 1 to 30 nmol/mouse, with lower fluorescence intensity observed in tumors at a lower dose (0.3 nmol) and higher fluorescence intensity observed in other tissues at doses above 30 nmol. In a second experiment, pafolacianine whole body imaging and tissue distribution was examined again; however, this experiment was performed in female nu/nu mice bearing FR-negative A549 cell tumor xenografts.

[2] = tested on: FR-positive KB cell tumor xenografts; test: Whole body imaging and tissue distribution, FR-positive KB tumor xenografts; assay type: in vivo, mice
Method: Whole body imaging and tissue distribution of pafolacianine and OTL0039 was performed in female nu/nu mice bearing FR-positive KB cell tumor xenografts. […] This observation was consistent with the lower binding affinity of the D-isomer for FR compared with the L-isomer. Tumor fluorescence was brighter in mice receiving pafolacianine compared with other folate-conjugated near infrared dyes such as LS288, IR800 and ZW800.
as §1

[3] = Single IV dose toxicokinetics in rats; assay type: in vivo; settings: Study Day 0; for AUC(0-t) / C0: rat, in vivo
Method: Following a single IV administration of pafolacianine to male and female rats, systemic exposure (AUClast) to pafolacianine appeared similar between males and females at the 46.3 mg/kg dose levels (Table 2). There was a slight trend for higher AUClast values in females versus males at the two lower dose levels; however, due to sparse sampling of blood, the significance of this slight trend could not be evaluated. Values for AUClast were calculated, but the time associated with the last measurable concentration was variable (Tlast; 5 min to 24 hr), which confounded the ability to assess dose proportionality. Terminal data were generally sparse and/or the terminal phase was not sufficiently defined (FIG. 4). Thus, parameters dependent on accurate determination of the terminal phase (AUCinf, T1/2, CL, Vz) were not reported.

[4] = Phase 1a pharmacokinetics in healthy volunteers, single IV administration; assay type: in vivo, human; settings: for AUC(0-t) / Tmax / AUC(0-inf) / clearance / Cmax / half-life / Vd: human, plasma, intravenous
Excerpt: A total of 73 potentially eligible healthy volunteers gave written acknowledgement of informed consent to participate in a Phase 1a study to assess the safety and pharmacokinetics of pafolacianine versus placebo. Fifty-four were found suitable for participation, of which 30 were enrolled in the study. Twenty-four subjects were white, 1 subject was Black/African-American, 1 was Asian, 1 was mixed race and 3 were of another race.
The pharmacokinetic (PK) analysis population was defined as all subjects who were randomized and received study treatment. Of note, the drug infusion was stopped prematurely in 1 subject, and interrupted in another subject. The pharmacokinetics of pafolacianine following single IV administration of 0.025, 0.05, 0.1, or 0.2 mg/kg was determined using non-compartmental analysis; the key PK parameters are summarized in Table 7.

[5] = Single IV dose toxicokinetics in dogs; assay type: in vivo; settings: for AUC(0-t) / C0: dog, in vivo
Method: Following a single IV administration of pafolacianine to male and female dogs, systemic exposure (C0, AUClast) to pafolacianine appeared similar between males and females at all dose levels (Table 3). Similar to rats, dog AUClast values were calculated from a range of concentration-time data with Tlast values varying from 5 minutes to 4 hours. In addition, there were limited dogs with reportable TK at 0.9 mg/kg (N=1-2). As a consequence, dose proportionality was not assessed for dogs. Terminal data were generally sparse (i.e., 2 or fewer measurable concentrations in the terminal phase, (FIG. 4). Similar to rat, parameters dependent on accurate determination of the terminal phase (AUCinf, T1/2, CL, Vz) were not reported.

[6] = female rats, 3.1 mg/kg single IV
[7] = female rats, 30.8 mg/kg single IV
[8] = female rats, 46.3 mg/kg single IV
[9] = male rats, 30.8 mg/kg single IV
[10] = male rats, 46.3 mg/kg single IV
[11] = dose escalated 8-fold (0.025 to 0.2 mg/kg)
[12] = 0.025 mg/kg, in 20 ml 0.9% NaCl, 10- and 60-min infusion
[13] = 0.025 mg/kg, in 220 ml 5% dextrose, 60-min infusion
[14] = 0.05 mg/kg, in 220 ml 5% dextrose, 60-min infusion
[15] = 0.1 mg/kg, in 220 ml 5% dextrose, 60-min infusion
[16] = 0.2 mg/kg, in 220 ml 5% dextrose, 60-min infusion
[17] = 0.2 mg/kg, with pre-treatment of antihistamine (clemastine)
[18] = female dogs, 0.9 mg/kg single IV, Study Day 0, N = 1
[19] = female dogs, 9.3 mg/kg single IV, Study Day 0
[20] = female dogs, 13.9 mg/kg single IV, Study Day 0
[21] = male dogs, 0.9 mg/kg single IV, Study Day 0, N = 2
[22] = male dogs, 9.3 mg/kg single IV, Study Day 0
[23] = male dogs, 13.9 mg/kg single IV, Study Day 0

## CC1(C)C(=CC=C2CCCC(C=CC3=[N+](CCCCS(=O)(=O)[O-])c4ccc(S(=O)(=O)O)cc4C3(C)C)=C2Oc2ccc(CC(NC(=O)c3ccc(NCc4cnc5nc(N)[nH]c(=O)c5n4)cc3)C(=O)O)cc2)N(CCCCS(=O)(=O)O)c2ccc(S(=O)(=O)O)cc21 (stereo not shown) [pafolacianine]
[1]
  fluorescence in FR-negative tumors: no fluorescence observed
  fluorescence in kidneys: fluorescence was primarily noted in kidneys
[2]; 2.5 hours after IV 10 nmol
  fluorescence in all other normal tissues: little or no fluorescence signal
  fluorescence in kidneys: fluorescence signal also observed in the kidneys
  fluorescence in tumors: fluorescence primarily in the tumors
  tumor-to-normal tissue fluorescence ratios: excellent
[2]; mouse, in vivo
  tumor fluorescence compared with other folate-conjugated near infrared dyes (LS288, IR800, ZW800): brighter
[3]; [6]
  DN AUClast: 0.816 (μg · h/mL)/(mg/kg)
  AUC(0-t): 2530 ng·h/mL
  C0: 16200 ng/mL
[3]; [7]
  DN AUClast: 5.39 (μg · h/mL)/(mg/kg)
  AUC(0-t): 166000 ng·h/mL
  C0: 178000 ng/mL
[3]; [8]
  DN AUClast: 5.51 (μg · h/mL)/(mg/kg)
  AUC(0-t): 255000 ng·h/mL
  C0: 231000 ng/mL
[3]; male rats, 3.1 mg/kg single IV
  DN AUClast: 0.184 (μg · h/mL)/(mg/kg)
  AUC(0-t): 570 ng·h/mL
  C0: 6870 ng/mL
[3]; [9]
  DN AUClast: 3.86 (μg · h/mL)/(mg/kg)
  AUC(0-t): 119000 ng·h/mL
  C0: 65700 ng/mL
[3]; [10]
  DN AUClast: 6.18 (μg · h/mL)/(mg/kg)
  AUC(0-t): 286000 ng·h/mL
  C0: 174000 ng/mL
[4]; [11]
  increase in AUClast: ~22 fold
  increase in Cmax: ~12 fold
[4]; [12]
  AUC(0-t): 63.4 ng·h/mL
  Tmax: 0.75 h
[4]; 0.025 mg/kg, in 20 ml 0.9% NaCl, 10- and 60-min infusion, read-out: AUC0-inf
  AUC(0-inf): 66.4 ng·h/mL
[4]; 0.025 mg/kg, in 20 ml 0.9% NaCl, 10- and 60-min infusion, read-out: CL (converted)
  clearance: 443 mL/min
[4]; 0.025 mg/kg, in 20 ml 0.9% NaCl, 10- and 60-min infusion, read-out: Cmax
  Cmax: 93.3 ng/mL
[4]; 0.025 mg/kg, in 20 ml 0.9% NaCl, 10- and 60-min infusion, read-out: T1/2 (converted)
  half-life: 0.416 h
[4]; 0.025 mg/kg, in 20 ml 0.9% NaCl, 10- and 60-min infusion, read-out: Vz
  Vd: 15.9 L
[4]; [13]
  AUC(0-t): 61.6 ng·h/mL
  Tmax: 0.95 h
[4]; 0.025 mg/kg, in 220 ml 5% dextrose, 60-min infusion, read-out: AUC0-inf
  AUC(0-inf): 63.6 ng·h/mL
[4]; 0.025 mg/kg, in 220 ml 5% dextrose, 60-min infusion, read-out: CL (converted)
  clearance: 477 mL/min
[4]; 0.025 mg/kg, in 220 ml 5% dextrose, 60-min infusion, read-out: Cmax
  Cmax: 59.1 ng/mL
[4]; 0.025 mg/kg, in 220 ml 5% dextrose, 60-min infusion, read-out: T1/2 (converted)
  half-life: 0.438 h
[4]; 0.025 mg/kg, in 220 ml 5% dextrose, 60-min infusion, read-out: Vz
  Vd: 17.1 L
[4]; 0.025 mg/kg, read-out: area under the plasma concentration-time curve to infinity (AUCinf)
  AUC(0-inf): 63.6 ± 12.6 ng·h/mL
[4]; 0.025 mg/kg, read-out: elimination half-life (converted)
  half-life: 0.44 ± 0.23 h
[4]; 0.025 mg/kg, read-out: mean maximum plasma concentration (Cmax)
  Cmax: 59.1 ± 5.94 ng/mL
[4]; 0.025 mg/kg, read-out: mean plasma clearance (converted)
  clearance: 477 mL/min
[4]; [14]
  AUC(0-t): 250 ng·h/mL
  Tmax: 1.03 h
[4]; 0.05 mg/kg, in 220 ml 5% dextrose, 60-min infusion, read-out: AUC0-inf
  AUC(0-inf): 258 ng·h/mL
[4]; 0.05 mg/kg, in 220 ml 5% dextrose, 60-min infusion, read-out: CL (converted)
  clearance: 245 mL/min
[4]; 0.05 mg/kg, in 220 ml 5% dextrose, 60-min infusion, read-out: Cmax
  Cmax: 184 ng/mL
[4]; 0.05 mg/kg, in 220 ml 5% dextrose, 60-min infusion, read-out: T1/2 (converted)
  half-life: 0.931 h
[4]; 0.05 mg/kg, in 220 ml 5% dextrose, 60-min infusion, read-out: Vz
  Vd: 19.2 L
[4]; [15]
  AUC(0-t): 785 ng·h/mL
  Tmax: 1.02 h
[4]; 0.1 mg/kg, in 220 ml 5% dextrose, 60-min infusion, read-out: AUC0-inf
  AUC(0-inf): 799 ng·h/mL
[4]; 0.1 mg/kg, in 220 ml 5% dextrose, 60-min infusion, read-out: CL (converted)
  clearance: 161 mL/min
[4]; 0.1 mg/kg, in 220 ml 5% dextrose, 60-min infusion, read-out: Cmax
  Cmax: 450 ng/mL
[4]; 0.1 mg/kg, in 220 ml 5% dextrose, 60-min infusion, read-out: T1/2 (converted)
  half-life: 1.64 h
[4]; 0.1 mg/kg, in 220 ml 5% dextrose, 60-min infusion, read-out: Vz
  Vd: 22.2 L
[4]; [16]
  AUC(0-t): 1310 ng·h/mL
  Tmax: 1.09 h
[4]; 0.2 mg/kg, in 220 ml 5% dextrose, 60-min infusion, read-out: AUC0-inf
  AUC(0-inf): 1340 ng·h/mL
[4]; 0.2 mg/kg, in 220 ml 5% dextrose, 60-min infusion, read-out: CL (converted)
  clearance: 167 mL/min
[4]; 0.2 mg/kg, in 220 ml 5% dextrose, 60-min infusion, read-out: Cmax
  Cmax: 640 ng/mL
[4]; 0.2 mg/kg, in 220 ml 5% dextrose, 60-min infusion, read-out: T1/2 (converted)
  half-life: 2.66 h
[4]; 0.2 mg/kg, in 220 ml 5% dextrose, 60-min infusion, read-out: Vz
  Vd: 38.8 L
[4]; [17]
  AUC(0-t): 1400 ng·h/mL
  Tmax: 1 h
[4]; 0.2 mg/kg, with pre-treatment of antihistamine (clemastine), read-out: AUC0-inf
  AUC(0-inf): 1430 ng·h/mL
[4]; 0.2 mg/kg, with pre-treatment of antihistamine (clemastine), read-out: CL (converted)
  clearance: 170 mL/min
[4]; 0.2 mg/kg, with pre-treatment of antihistamine (clemastine), read-out: Cmax
  Cmax: 765 ng/mL
[4]; 0.2 mg/kg, with pre-treatment of antihistamine (clemastine), read-out: T1/2 (converted)
  half-life: 2.4 h
[4]; 0.2 mg/kg, with pre-treatment of antihistamine (clemastine), read-out: Vz
  Vd: 36 L
[4]; 0.025 to 0.2 mg/kg, read-out: clearance over the dose range
  clearance: 167 to 483 mL/min
[4]; 0.025 to 0.2 mg/kg, read-out: half-life values range
  half-life: 0.4 to 2.7 h
[4]; read-out: mean volume of distribution (Vz)
  Vd: 17.1 ± 5.99 L
[5]; [18]
  AUC(0-t): 362 ng·h/mL
  C0: 4360 ng/mL
  DN AUClast: 0.402 (μg · h/mL)/(mg/kg)
[5]; [19]
  AUC(0-t): 17600 ng·h/mL
  C0: 61500 ng/mL
  DN AUClast: 1.89 (μg · h/mL)/(mg/kg)
[5]; [20]
  AUC(0-t): 44000 ng·h/mL
  C0: 109000 ng/mL
  DN AUClast: 3.17 (μg · h/mL)/(mg/kg)
[5]; [21]
  AUC(0-t): 397 ng·h/mL
  C0: 3790 ng/mL
  DN AUClast: 0.442 (μg · h/mL)/(mg/kg)
[5]; [22]
  AUC(0-t): 16800 ng·h/mL
  C0: 58500 ng/mL
  DN AUClast: 1.81 (μg · h/mL)/(mg/kg)
[5]; [23]
  AUC(0-t): 42100 ng·h/mL
  C0: 107000 ng/mL
  DN AUClast: 3.03 (μg · h/mL)/(mg/kg)
